Kd data for one molecule are collected here from paper PMC10070013, “Apigenin improves cytotoxicity of antiretroviral drugs against HTLV-1 infected cells through the modulation of AhR signaling” (Neuroimmune Pharmacology and Therapeutics, 2023).

The target in test [1] is T1, aryl hydrocarbon receptor (AhR) (Homo sapiens, UniProt P35869).
T1 construct: Recombinant human AhR (LS-G13702-10)
The experiment in a line: Nano-ITC with recombinant protein. Type of test: binding.

For test [2], the target named is T2, ATP binding cassette subfamily B member 1 (ABCB1/P-gp) (Homo sapiens, UniProt P08183).
T2 construct: Recombinant human ABCB1 (LS-G142372-20)
The test is described as follows: Nano-ITC with recombinant protein (positive control protein).

T2 sequence (P08183 whole entry): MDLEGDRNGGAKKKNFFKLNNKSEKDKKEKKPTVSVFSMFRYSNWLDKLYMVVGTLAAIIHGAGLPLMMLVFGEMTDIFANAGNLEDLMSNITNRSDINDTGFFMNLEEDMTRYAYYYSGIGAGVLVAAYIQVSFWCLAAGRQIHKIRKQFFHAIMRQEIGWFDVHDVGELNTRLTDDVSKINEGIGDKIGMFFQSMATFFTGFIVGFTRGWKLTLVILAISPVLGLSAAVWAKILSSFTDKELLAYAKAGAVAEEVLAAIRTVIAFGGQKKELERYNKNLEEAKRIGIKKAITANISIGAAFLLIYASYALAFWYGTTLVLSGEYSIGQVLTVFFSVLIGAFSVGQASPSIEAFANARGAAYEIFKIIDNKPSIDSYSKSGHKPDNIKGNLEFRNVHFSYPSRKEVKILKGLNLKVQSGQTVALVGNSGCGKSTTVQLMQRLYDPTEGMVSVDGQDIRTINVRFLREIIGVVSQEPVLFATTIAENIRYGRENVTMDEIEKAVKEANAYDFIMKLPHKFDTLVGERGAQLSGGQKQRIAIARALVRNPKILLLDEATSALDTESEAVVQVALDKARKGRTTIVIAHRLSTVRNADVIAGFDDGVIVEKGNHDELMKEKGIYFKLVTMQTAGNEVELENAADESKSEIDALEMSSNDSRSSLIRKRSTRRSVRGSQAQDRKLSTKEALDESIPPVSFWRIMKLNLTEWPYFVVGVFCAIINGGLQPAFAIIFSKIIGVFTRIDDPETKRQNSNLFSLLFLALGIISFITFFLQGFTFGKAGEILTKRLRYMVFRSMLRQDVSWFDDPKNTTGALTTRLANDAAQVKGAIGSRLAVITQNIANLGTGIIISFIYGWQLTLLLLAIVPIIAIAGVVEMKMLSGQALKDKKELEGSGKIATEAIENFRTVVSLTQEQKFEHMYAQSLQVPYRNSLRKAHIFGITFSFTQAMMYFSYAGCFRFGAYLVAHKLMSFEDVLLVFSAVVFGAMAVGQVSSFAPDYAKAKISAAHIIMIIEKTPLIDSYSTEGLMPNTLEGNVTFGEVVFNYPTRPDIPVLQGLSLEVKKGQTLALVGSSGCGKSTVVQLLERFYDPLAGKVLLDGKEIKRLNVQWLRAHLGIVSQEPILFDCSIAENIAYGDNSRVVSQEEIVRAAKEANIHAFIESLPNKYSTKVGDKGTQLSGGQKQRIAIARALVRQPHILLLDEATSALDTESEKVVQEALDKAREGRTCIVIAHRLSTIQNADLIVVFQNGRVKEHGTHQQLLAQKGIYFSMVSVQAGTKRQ
T1 sequence (P35869 11-848): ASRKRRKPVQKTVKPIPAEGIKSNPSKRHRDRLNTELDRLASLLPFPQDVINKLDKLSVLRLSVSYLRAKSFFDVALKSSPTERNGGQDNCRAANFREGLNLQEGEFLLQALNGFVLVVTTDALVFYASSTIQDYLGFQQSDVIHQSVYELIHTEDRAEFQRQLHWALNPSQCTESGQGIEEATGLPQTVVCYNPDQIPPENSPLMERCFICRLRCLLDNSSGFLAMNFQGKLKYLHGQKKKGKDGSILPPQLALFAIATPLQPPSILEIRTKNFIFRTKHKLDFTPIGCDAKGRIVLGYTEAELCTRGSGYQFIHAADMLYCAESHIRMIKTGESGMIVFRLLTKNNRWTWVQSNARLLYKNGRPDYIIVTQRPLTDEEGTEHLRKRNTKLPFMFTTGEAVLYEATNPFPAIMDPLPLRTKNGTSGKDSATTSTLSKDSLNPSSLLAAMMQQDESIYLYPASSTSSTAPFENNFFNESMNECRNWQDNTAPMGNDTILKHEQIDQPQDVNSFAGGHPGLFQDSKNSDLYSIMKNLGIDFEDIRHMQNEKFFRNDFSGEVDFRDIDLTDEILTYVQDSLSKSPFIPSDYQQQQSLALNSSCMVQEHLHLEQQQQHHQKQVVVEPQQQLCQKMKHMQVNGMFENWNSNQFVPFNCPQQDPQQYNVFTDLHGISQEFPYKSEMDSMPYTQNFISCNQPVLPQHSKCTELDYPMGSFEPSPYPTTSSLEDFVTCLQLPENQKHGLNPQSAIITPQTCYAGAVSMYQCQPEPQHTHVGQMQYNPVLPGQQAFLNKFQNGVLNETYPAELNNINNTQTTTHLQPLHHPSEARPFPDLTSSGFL

As for `O=c1cc(-c2ccc(O)cc2)oc2cc(O)cc(O)c12` [Apigenin], the equilibrium dissociation constant (Kd) (in general, the equilibrium constant for the complex coming apart) in test [1] amounted to 4.24 µM; in test [2] it was 0.001 µM.
